Patent US20040048791A1, “Method for treating neoplastic cells using cycloprodigiosin or salt thereof” (priority 2002, published 2004)

Experiments:
[1] = Oka et al. (2000) FEBS Lett.; cited from earlier work
NF-κB = NF-κB luciferase gene reporter assay (pIG3Luc) in HeLa cells; format: cell-based; conditions: HeLa cells, FIG. 2A, 2C
Description: The plasmids, pRKF-IKKα and pRKHA-IKKβ have been described previously (Oka, S., Kamata, H., Kamata, K., Yagisawa, H. and Hirata, H. (2000) FEBS Lett., 472, 196-202). pRKF-IKKαEE and pRK-HA-IKKβEE encode constitutively active mutants of IKKα, in which 176 and 180 serine residues in an activation loop are replaced by glutamic acid residues, and IKKβ, in, which 177 and 181 serine residues are replaced by glutamic acid residues, respectively. A reporter plasmid pIG3Luc for NF-κB encodes triple NF-κB binding site sequences (AGCTTCAGAGGGGACTRANSCRIPTIONCCGAGAGG) (SEQ ID NO: 2) followed by the luciferase gene. A control plasmid, pBKRLuc, was obtained from Toyobo (Toyo B-Net Co., Japan). pcDNAF-MEKK1, pRKF-p65, pEFBOSHA-Rac1-DA, and pEFBOSHA-Cdc42-DA, are the expression plasmids for MEKK1, the NF-κB subunit p65, constitutively active Rac1 and Cdc42, respectively.
Luciferase gene reporter assay and Kinase assays of IKK: HeLa cells were transfected with the reporter plasmids described above using Lipofectin (GIBCO BRL). After 24-48 hr, the luciferase activity was determined using the Luciferase Assay System (Promega). The kinase activity of IKKα and IKKβ were analyzed by immune complex kinase assay as described previously (Oka, S., Kamata, H., Kamata, K., Yagisawa, H. and Hirata, H. (2000) FEBS Lett. 472, 196-202). The substrates was using GST-IκBα(1-55) or GST-p65(399-551).
The gene expression induction by NF-κB activation plays the most important role among “life” signals by TNFα. Therefore, the NF-κB reporter gene was introduced into the cells to analyze the effect of cPrG-HCl by luciferase assay.
NF-κB is translocated into the nucleus also by activation with low-molecular-weight G proteins Rac1 and Cdc42 or MEKK1 and induces gene expression. An activated Rac1, Cdc42 or MEKK1 expression plasmid was introduced together with the NF-κB reporter gene into cells and the effect of cPrG-HCl on NF-κB activation was measured by luciferase assay (FIG. 4A and FIG. 4B).

[2] = as compared to FCCP
female ICR mice = assay: Toxicity on intraperitoneal administration to mice; format: in vivo; conditions: 5 weeks old, 25 to 29 g
HeLa cells [3] = assay: Cell viability by trypan blue dye exclusion assay; format: cell-based; conditions: stimulation by TNFα alone, FIG. 1A
Procedure: (§1) Cell culture: HeLa cells were cultured in Dulbecco's modified Eagle's medium supplemented with 10% fetal bovine serum and 50 μg/ml kanamycin at 37° C. in 5% CO2 in air.
(§2) Assay for apoptotic processes: Cell viability was determined by dye exclusion assay using 0.1% trypan blue. DNA fragmentation was analyzed as described previously (Kawauchi, K. et al. (1997) Biochem. Biophys. Res. Commun. 237, 543-547). In the caspase-3 assay, cells were disrupted by freeze-thaw in an extraction buffer (50 mM Tris-HCl, pH7.4, 1 mM EGTA, 5 mM EDTA, 5 mM MgCl2, 1 mM APMSF, 10 μg/ml pepstatin, 10 μg/ml leupeptin, and 1 mM DTT). Then the suspension was centrifuged at 15,000 rpm for 20 min, and the supernatants obtained were incubated at 37° C. for 60 min in a reaction buffer (50 mM Tris-HCl, pH7.4, 1 mM EDTA, 10 mM EGTA) with 20 μM of the fluorogenic substrate DEVD-AFC (Peptide Institute, Inc., Japan). Cleavage of the substrates was quantified by measuring the fluorescence of 7-amino-4-trifluomethyl coumarin released using a spectrofluorometer (Shimadzu RF5000) with excitation at 380 mn and emission at 460 nm.

HeLa cells [4] = assay: DNA fragmentation (apoptosis) in HeLa cells; format: cell-based; conditions: stimulation by TNFα alone, FIG. 1A
Procedure: as §1, §2
HeLa cells were treated with TNFα and cPrG.HCl and the effect of cPrG.HCl on apoptosis was examined by measuring DNA fragmentation and survivability.

Compound: CC(=O)N[C@@H](CS)C(=O)O [N-acetylcysteine]
- effect on apoptosis [1]: inhibits

Compound: CO/C1=C\C(C)=C\[C@@H](C)[C@@H](O)[C@@H](C)C/C(C)=C/C=C/[C@H](OC)[C@@H]([C@@H](C)[C@@H](O)[C@H](C)[C@@]2(O)C[C@@H](O)[C@H](C)[C@@H](C(C)C)O2)OC1=O [bafilomycin, reference compound]
- TNFα-induced NF-κB activation (gene expression induction, luciferase) (NF-κB): not suppressed

Compound: COC1=CC(c2ccc[nH]2)=N/C1=C\c1[nH]c(C)c2c1C(C)CCC2 (stereo not drawn) [cPrG, Cycloprodigiosin]
- ionophore activity [2]: no ionophore activity
- LD50 (female ICR mice): greater than 10 mg

Compound: TNFα
- decrease in cell viability (HeLa cells [3]): hardly observed
- DNA fragmentation (HeLa cells [4]): hardly observed
